Assay results taken from patent US20080200372A1, “Glycosaminoglycan Peptides Derived From Connective Tissues And Use Thereof In The Prevention Of Arthritis And Other Degenerative Medical Conditions” (Institute of Nutraceutical Research Pty Ltd., priority 2004, published 2008).
Entries after “also recorded” stand apart in the source; their conditions may differ.

Legend:
[1] = tested on: rat collagen induced arthritis (CIA) model; assay: Rat type II collagen induced arthritis (CIA) model, toleragenic protocol (7 days oral pre-administration); type: in vivo; settings: for activity as toleragens in the rat CIA model: comparative study with CaP, FIG. 8
Method: In another example of the present invention, the tolerogenic protocol of evaluation of the pharmaceutical of the invention comprises administering the pharmaceutical composition to the animals prior to inducing arthritis by injection of the arthritogen. The pharmaceutical composition is administered for a period of time suitable to tolerize the animal. In one example the pharmaceutical composition is administered for 1 to 21 days prior to administration of the arthritogen. In one preferred example the pharmaceutical composition is administered for 1, 7, 10, 15 or 20 days prior to administration of the arthritogen. According to the toleragenic protocol for studying the activity of the pharmaceutical of the present invention, it is preferred that administration of the pharmaceutical composition ceases at the time that the arthritogen is administered.
Female Wistar rats (160-180 gm) were inoculated with 250 μg of the arthritogen, bovine tracheal collagen type-II dissolved in dilute acetic acid (0.01M) and applied as 6 divided injections into their tail base on day 0. The body weight of animals, together with their tail and paw swelling, were determined every 48 h, the latter parameters being determined using callipers and results expressed in millimetres (mm). Arthritis development was also assessed from day 11 onwards using a macroscopic scoring scale whereby rear paw, fore paw, and tail swelling were scored on a scale 0-4+. An overall arthritis score (0-4+) was also determined on the basis of overall inflammation and other signs of disease activity, e.g. piloerection, diminished mobility, poor grooming etc as described previously [Creamer M. et al. Collagen-induced arthritis in rats. J Immunology, 149:1045-1053, 1992]. […]

[2] = tested on: rat collagen induced arthritis (CIA) model; assay: Rat type II collagen induced arthritis (CIA) model, prophylactic protocol (15 days oral administration); type: in vivo; settings: 200 mg/kg oral, 15 days administration, measured on day 15 (FIG. 8, FIG. 14)
Method: According to the prophylactic protocol of evaluation, the pharmaceutical composition of the present invention is administered to the animals from the time the animals are injected with arthritogen and for a number of days thereafter. In one example the pharmaceutical composition is administered to the animal for between 1 and 15 days after administration of the arthritogen. In alternate examples of the invention the pharmaceutical composition is administered for example for 7, 10, 15 or 20 days after administration of the arthritogen. The scope of the present invention extends to the administration of the pharmaceutical composition for an appropriate period of time after administration of the arthritogen that is suitable to effect prophylaxis to prevent the onset of symptoms of a harmful immune response to the arthritogen. […] The body weight of animals, together with their tail and paw swelling, were determined every 48 h, the latter parameters being determined using callipers and results expressed in millimetres (mm). Arthritis development was also assessed from day 11 onwards using a macroscopic scoring scale whereby rear paw, fore paw, and tail swelling were scored on a scale 0-4+. […]

[3] = tested on: citrated human plasma; assay: In vitro anticoagulant activity, activated partial thromboplastin time (aPTT); type: biochemical
Method: Pharmaceutical quality chondroitin sulfate were obtained from Bioiberica, Barcelona, Spain (ChS#1) and Sigma Chemical Co St Louis, Mo., USA (ChS#2). Calcium peptacan (CaP), and GAG-peptide (GAG-P), prepared as described herein, were evaluated for their anticoagulant activities using a commercial aPTT reagent (Actin FSL activated PTT reagent, Dade-Behring Margurg GmbH, Marburg, Germany) and a standard human plasma: (Ci-Trol Coagulation Control level 2, Dade-Behring Margurg GmbH, Marburg, Germany) according to the protocol supplied by the manufacturer. Stock solutions of the test preparations were dissolved in 0.025M calcium chloride and serially diluted in this buffer to correspond to the concentrations of 0-1.25 mg/mL. The aPTT times were determined by the addition of these solutions to a mixture of the Actin FSL reagent and control plasma held at 37° C. in cuvettes of a fibrin-timer (Dade-Behring Margurg GmbH, Marburg, Germany). This instrument quantitated the time in seconds for clot formation. All samples were assayed in duplicate and the mean values plotted against concentration using a semi-log scale.

[4] = tested on: haemorrhagic stomach lesions produced by ibuprofen in rats with CIA; assay: Gastroprotective activity in the rat CIA model against haemorrhagic stomach lesions produced by ibuprofen; type: in vivo
Method: FIG. 18 provides a table (Table 1) of the results for testing gastroprotective activity of Calcium Peptacan in the Rat CIA Arthritis Model against haemorrhagic stomach lesions produced by oral administration of the non-steroidal anti-inflammatory drug, Ibufrofen (50 mg/kg) on day 20.
As discussed earlier the chronic use of NSAIDs by OA and RA patients is frequently associated with serious side effects in the gastrointestinal tract particularly with respect the induction of gastric bleeding. This effect was confirmed in an animal model by administering 50 mg/kg of the NSAID, ibuprofen, to rats in which CIA had been ongoing for 20 days [see FIG. 18—Table 1].

[5] = tested on: type II collagen (CII) arthritis (CIA) in mice; settings: cited from earlier work

Compound: N[C@H]1C(O)O[C@H](CO)[C@@H](O)[C@@H]1O.O=S(=O)(O)O (stereo partly drawn) [GmSO4, Glucosamine Sulfate]
- activity as toleragens in the rat CIA model [1]: inactive as toleragens
- prophylactic effects on arthritis development (rear paw swelling, front paw inflammation, arthritis scores) [2]: CaP was the only preparation that demonstrated anti-arthritic activity

Compound: chondroitin sulfate [ChS #1]
- anticoagulant effect (aPTT) ([3]; citrated human plasma, 0-1.25 mg/mL (FIG. 17)): strongest anticoagulant effect

Compound: O=C(O)CC([S-])C(=O)O.[Au+] (stereo not drawn) [aurothiomalate]
- gastro protective effectiveness ([4]; ibuprofen 50 mg/kg on day 20 of CIA, dose of test substance not given): only marginally effective

Compound: Cl.N[C@H]1C(O)O[C@H](CO)[C@@H](O)[C@@H]1O (stereo partly drawn) [GmHCl, Glucosamine Hydrochloride]
- activity as toleragens in the rat CIA model [1]: inactive as toleragens
- prophylactic effects on arthritis development (rear paw swelling, front paw inflammation, arthritis scores) [2]: CaP was the only preparation that demonstrated anti-arthritic activity

Compound: CC(C)Cc1ccc(C(C)C(=O)O)cc1 (stereo not drawn) [ibuprofen]
- induction of gastric bleeding ([4]; 50 mg/kg to rats in which CIA had been ongoing for 20 days): confirmed

Compound: chondroitin sulfate [ChS]
- toleragenic effects on arthritis development (rear paw swelling, front paw inflammation, arthritis scores) ([1]; 20 mg/kg oral, 7 days pre-administration, measured on day 15 (FIG. 7, FIG. 9)): inactive as a toleragen; also recorded: no activity
- concentration range over which anti-coagulant activity was exhibited ([3]; aPTT (FIG. 17)): 0.4 to 1.2 mg/mL
- delayed-type hypersensitivity (DTH) reaction ([5]; at any dose (100, 300, 1000 mg/kg), mice): no effect
- severity of the disease (hind paw oedema, synovitis, destruction of the articular cartilage) ([5]; only at the highest dose, 1000 mg/kg oral, mice): significantly reduced
- incidence of arthritis ([5]; oral doses of 100, 300 and 1000 mg/kg for 14 days prior to inducing CIA in mice): failed to prevent the incidence of arthritis
